Assay results taken from patent US11512053B2, “Arginine methyltransferase inhibitors and uses thereof” (priority 2013, dated 2022).
Structures can show the parent of a compound that is named as a salt. Where two headings read alike, the source gives them in different places.

Assays:
[1] = target: full-length human PRMT8 isoform 1 (Homo sapiens, UniProt Q9NR22); test: PRMT8 Biochemical Assay (3H-SAM Flashplate, peptide substrate); settings: single experiment or average of multiple experiments; read-out: Biochemical IC50 PRMT8
Excerpt: (§1) General Materials. S-adenosylmethionine (SAM), S-adenosylhomocysteine (SAH), bicine, Tween20, dimethylsulfoxide (DMSO), bovine skin gelatin (BSG), isopropyl-β-D-thiogalactopyranoside (IPTG), and Tris(2-carboxyethyl)phosphine hydrochloride solution (TCEP) were purchased from Sigma-Aldrich at the highest level of purity possible. ^3H-SAM was purchase from American Radiolabeled Chemicals with a specific activity of 80 Ci/mmol. 384-well streptavidin Flashplates were purchased from PerkinElmer.
Substrates. Peptide representative of human histone H4 residues 31-45 was synthesized with an N-terminal linker-affinity tag motif and a C-terminal amide cap by 21st Century Biochemicals. The peptide was purified by high-performance liquid chromatography (HPLC) to greater than 95% purity and confirmed by liquid chromatography mass spectrometry (LC-MS). The sequence was Biot-Ahx-[…]-amide (SEQ ID NO.:8).
The resulting construct encodes an N-terminal GST tag and a thrombin cleavage sequence ([…] […] […] […] SPEF) (SEQ ID NO.:9) fused directly to Met 1 of PRMT8.
Protein Expression. E. coli (BL21(DE3) Gold, Stratagene) made competent by the CaCl2) method were transformed with the PRMT8 construct and ampicillin selection. Protein over-expression was accomplished by growing the PRMT8 expressing E. coli clone and inducing expression with 0.3 mM IPTG at 16° C. The culture was grown for 12 hours, harvested by centrifugation, and stored at −80° C. for purification.
Protein Purification. […] GST-tagged PRMT8 was eluted with 50 mM Tris, 2 mM glutathione, pH 7.8. Pooled fractions were cleaved by thrombin (10U) and dialysed in buffer A. GST was removed by reloading the cleaved protein sample onto glutathione sepharose column and PRMT8 was collected in the flow-through fractions. PRMT8 was purified further by ceramic hydroxyapatite chromatography. The column was washed with 50 mM phosphate buffer, 100 mM NaCl, 5% glycerol, 5 mM β-mercaptoethanol, pH 7.8 and PRMT8 was eluted by 100 mM phosphate in the same buffer. Protein was concentrated and buffer was exchanged to 50 mM Tris, 300 mM NaCl, 10% glycerol, 5 mM β-mercaptoethanol, pH 7.8 by ultrafiltration. The purity of recovered protein was 89%.
General Procedure for PRMT8 Enzyme Assays on Peptide Substrates. The assays were all performed in a buffer consisting of 20 mM Bicine (pH=7.6), 1 mM TCEP, 0.005% BSG, and 0.002% Tween 20, prepared on the day of use. Compounds in 100% DMSO (1 ul) were spotted into a polypropylene 384-well V-bottom plates (Greiner) using a Platemate Plus outfitted with a 384-channel head (Thermo Scientific). DMSO (1 ul) was added to Columns 11, 12, 23, 24, rows A-H for the maximum signal control and 1 ul of SAH, a known product and inhibitor of PRMT8, was added to columns 11, 12, 23, 24, rows I-P for the minimum signal control. A cocktail (40 ul) containing the PRMT8 enzyme was added by Multidrop Combi (Thermo-Fisher). The compounds were allowed to incubate with PRMT8 for 30 min at room temperature, then a cocktail (10 ul) containing ^3H-SAM and peptide was added to initiate the reaction (final volume=51 ul). The final concentrations of the components were as follows: PRMT8 was 1.5 nM, ^3H-SAM was 50 nM, non-radiolabeled SAM was 550 nM, peptide was 150 nM, SAH in the minimum signal control wells was 1 mM, and the DMSO concentration was 2%. The assays were stopped by the addition of non-radiolabeled SAM (10 ul) to a final concentration of 400 uM, which dilutes the ^3H-SAM to a level where its incorporation into the peptide substrate is no longer detectable. 50 ul of the reaction in the 384-well polypropylene plate was then transferred to a 384-well Flashplate and the biotinylated peptides were allowed to bind to the streptavidin surface for at least 1 hour before being washed once with 0.1% Tween20 in a Biotek ELx405 plate washer. […]

[2] = tested on: mono-methyl arginine in RKO cells; test: RKO Methylation Assay, In Cell Western (ICW) for detection of mono-methyl arginine and DNA content; type: cell-based; settings: for EC30: Homo sapiens, RKO, 72 h
Excerpt: RKO adherent cells were purchased from ATCC (American Type Culture Collection), Manassas, Va., USA. DMEM/Glutamax medium, penicillin-streptomycin, heat inactivated fetal bovine serum, 0.05% trypsin and D-PBS were purchased from Life Technologies, Grand Island, N.Y., USA. Odyssey blocking buffer, 800 CW goat anti-rabbit IgG (H+L) antibody, and Licor Odyssey infrared scanner were purchased from Licor Biosciences, Lincoln, Nebr., USA. Mono-methyl arginine antibody was purchased from Cell Signaling Technology, Danvers, Mass., USA. Methanol was purchased from VWR, Franklin, Mass., USA. 10% Tween 20 was purchased from KPL, Inc., Gaithersburg, Md., USA. DRAQ5 was purchased from Biostatus Limited, Leicestershire, UK.
RKO adherent cells were maintained in growth medium (DMEM/Glutamax medium supplemented with 10% v/v heat inactivated fetal bovine serum and 100 units/mL penicillin-streptomycin) and cultured at 37° C. under 5% CO2.
Cell treatment, In Cell Western (ICW) for detection of mono-methyl arginine and DNA content. […] Compound (100 nL) from a 96-well source plate was added directly to 384 well cell plate. Plates were incubated at 37° C., 5% CO2 for 72 hours. After three days of incubation, plates were brought to room temperature outside of the incubator for ten minutes and blotted on paper towels to remove cell media. 50 μL of ice cold 100% methanol was added directly to each well and incubated for 30 min at room temperature. After 30 min, plates were transferred to a Biotek EL406 plate washer and washed 2 times with 100 μL per well of wash buffer (1×PBS). Next 60 μL per well of Odyssey blocking buffer (Odyssey Buffer with 0.1% Tween 20 (v/v)) were added to each plate and incubated 1 hour at room temperature. Blocking buffer was removed and 20 μL per well of primary antibody was added (mono-methyl arginine diluted 1:200 in Odyssey buffer with 0.1% Tween 20 (v/v)) and plates were incubated overnight (16 hours) at 4° C. Plates were washed 5 times with 100 μL per well of wash buffer. […] The plates were washed 5 times with 100 μL per well wash buffer then 2 times with 100 μL per well of water. Plates were allowed to dry at room temperature then imaged on the Licor Odyssey machine which measures integrated intensity at 700 nm and 800 nm wavelengths. Both 700 and 800 channels were scanned.
Calculations: First, the ratio for each well was determined by:
Each plate included fourteen control wells of DMSO only treatment (minimum activation) as well as fourteen control wells for maximum activation treated with 20 μM of a reference compound. The average of the ratio values for each control type was calculated and used to determine the percent activation for each test well in the plate. Reference compound was serially diluted three-fold in DMSO for a total of nine test concentrations, beginning at 20 μM. Percent activation was determined and EC30 curves were generated using triplicate wells per concentration of compound.

[3] = target: full-length human PRMT6 (Flag- and His-tagged) (Homo sapiens, UniProt Q96LA8); test: PRMT6 Biochemical Assay (3H-SAM Flashplate, peptide substrate)
Excerpt: as §1, with “sodium butyrate” for “isopropyl-β-D-thiogalactopyranoside (IPTG),”
Substrates. Peptide representative of human histone H4 residues 36-50 was synthesized with an N-terminal linker-affinity tag motif and a C-terminal amide cap by 21st Century Biochemicals. The peptide was purified by high-performance liquid chromatography (HPLC) to greater than 95% purity and confirmed by liquid chromatography mass spectrometry (LC-MS). The sequence was Biot-Ahx-[…]-amide and contained a monomethylated lysine at position 44 (SEQ ID NO.:5).
Molecular Biology: Full-length human PRMT6 (NM_018137.2) transcript clone was amplified from an HEK 293 cDNA library, incorporating a flanking 5′ sequence encoding a FLAG tag ([…]) (SEQ ID NO.:6) fused directly to Ser 2 of PRMT6 and a 3′ sequence encoding a hexa His sequence (HHHHHH) (SEQ ID NO.:17) fused directly to Asp 375. The amplified gene was subcloned into pFastBacMam (Viva Biotech).
Protein Expression. Recombinant baculovirus were generated according to Bac-to-Bac kit instructions (Life Technologies). […] Infections were carried out at 37° C. for 48 hours, harvested by centrifugation, and stored at −80° C. for purification.
Protein Purification. […] Column was washed with 20 mM imidazole in the same buffer and Flag-PRMT6-His was eluted with 150 mM imidazole. Pooled fractions were dialysed against buffer N^1-A and further purified by anti-flag M2 affinity chromatography. Flag-PRMT6-His was eluted with 200 ug/ml FLAG peptide in the same buffer. Pooled fractions were dialysed in 20 mM Tris, 150 mM NaCl, 10% glycerol and 5 mM β-mercaptoethanol, pH 7.8. The purity of recovered protein was 95%.
General Procedure for PRMT6 Enzyme Assays on Peptide Substrates. The assays were all performed in a buffer consisting of 20 mM Bicine (pH=7.6), 1 mM TCEP, 0.005% BSG, and 0.002% Tween 20, prepared on the day of use. Compounds in 100% DMSO (1 ul) were spotted into a polypropylene 384-well V-bottom plates (Greiner) using a Platemate Plus outfitted with a 384-channel head (Thermo Scientific). DMSO (1 ul) was added to Columns 11, 12, 23, 24, rows A-H for the maximum signal control and 1 ul of SAH, a known product and inhibitor of PRMT6, was added to columns 11, 12, 23, 24, rows I-P for the minimum signal control. A cocktail (40 ul) containing the PRMT6 enzyme was added by Multidrop Combi (Thermo-Fisher). The compounds were allowed to incubate with PRMT6 for 30 min at room temperature, then a cocktail (10 ul) containing SAM and peptide was added to initiate the reaction (final volume=51 ul). The final concentrations of the components were as follows: PRMT6 was 1 nM, ^3H-SAM was 200 nM, non-radiolabeled SAM was 250 nM, peptide was 75 nM, SAH in the minimum signal control wells was 1 mM, and the DMSO concentration was 2%. The assays were stopped by the addition of non-radiolabeled SAM (10 ul) to a final concentration of 400 uM, which dilutes the ^3H-SAM to a level where its incorporation into the peptide substrate is no longer detectable. 50 ul of the reaction in the 384-well polypropylene plate was then transferred to a 384-well Flashplate and the biotinylated peptides were allowed to bind to the streptavidin surface for at least 1 hour before being washed once with 0.1% Tween20 in a Biotek ELx405 plate washer. The plates were then read in a PerkinElmer TopCount plate reader to measure the quantity of ^3H-labeled peptide bound to the Flashplate surface, measured as disintegrations per minute (dpm) or alternatively, referred to as counts per minute (cpm). […]

Chain of full-length human PRMT6 (Flag- and His-tagged) (Q96LA8 with tags, fused parts or gaps): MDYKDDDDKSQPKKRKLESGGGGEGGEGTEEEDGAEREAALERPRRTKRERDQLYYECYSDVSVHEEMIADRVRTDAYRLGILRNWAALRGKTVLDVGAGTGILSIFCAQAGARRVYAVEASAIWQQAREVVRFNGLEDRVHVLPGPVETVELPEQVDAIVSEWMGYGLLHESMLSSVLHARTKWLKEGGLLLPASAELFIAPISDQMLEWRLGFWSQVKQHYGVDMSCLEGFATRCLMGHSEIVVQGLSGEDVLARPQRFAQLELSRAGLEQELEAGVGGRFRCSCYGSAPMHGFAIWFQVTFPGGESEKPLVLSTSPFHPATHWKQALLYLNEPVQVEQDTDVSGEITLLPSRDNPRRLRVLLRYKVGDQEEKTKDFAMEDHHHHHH
Chain of full-length human PRMT8 isoform 1 (Q9NR22 whole entry, canonical isoform): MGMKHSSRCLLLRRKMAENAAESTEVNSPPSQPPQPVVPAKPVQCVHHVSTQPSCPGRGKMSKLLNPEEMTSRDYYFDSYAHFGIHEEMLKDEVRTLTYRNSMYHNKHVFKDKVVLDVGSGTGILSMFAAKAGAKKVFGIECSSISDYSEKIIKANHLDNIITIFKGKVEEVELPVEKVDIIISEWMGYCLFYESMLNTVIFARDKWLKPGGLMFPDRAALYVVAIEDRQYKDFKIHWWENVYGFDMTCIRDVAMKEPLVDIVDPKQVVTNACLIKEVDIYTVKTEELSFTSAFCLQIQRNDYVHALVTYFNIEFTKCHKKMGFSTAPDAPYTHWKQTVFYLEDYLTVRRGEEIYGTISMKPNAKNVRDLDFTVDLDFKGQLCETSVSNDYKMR

Compound | IC50 [1] [nM] | EC30 ([2]; RKO cells, 72 hours incubation, mono-methyl arginine signal normalised to DNA content, single experiment or average of multiple experiments, read-out: In Cell Western EC30) [nM] | In Cell Western EC30 ([2]; RKO cells, 72 hours compound incubation, mono-methyl arginine signal normalised to DNA content (DRAQ5), percent activation vs 20 μM reference compound) | IC50 ([3]; Biochemical IC50 PRMT6) [nM] | IC50 ([3]; Biochemical IC50 PRMT6, single experiment or average of multiple experiments) [nM] | EC30 ([2]; read-out: In Cell Western EC30, RKO cells, 72 hours compound incubation, mono-methyl arginine signal normalised to DNA content (DRAQ5), percent activation vs 20 μM reference compound) [nM] | EC30 ([2]; read-out: In Cell Western EC30, RKO cells, 72 hours incubation, mono-methyl arginine signal normalised to DNA content, single experiment or average of multiple experiments) [nM]
CN(CCN)Cc1c[nH]nc1C1CCC(N2CCOCC2)CC1 (stereo not shown) [Compound 43, N^1-methyl-N^1-((3-(4-morpholinocyclohexyl)-1H-pyrazol-4-yl)methyl)ethane-1,2-diamine] | 11.6 | 2600 | A (“A” indicates an EC30 ≤ 3.00 μM) | – | – | – | –
CCOCC1(COCC)CCC(c2n[nH]cc2CN(C)CCNC)CC1 [Compound 158, ([3-[4,4-bis(ethoxymethyl)cyclohexyl]-1H-pyrazol-4-yl]methyl)(methyl)[2-(methylamino)ethyl]amine hydrochloride salt] | – | – | – | < 100 | 91 | < 3000 | 8
